Source: patent US10894777B2, “TG2 inhibitor piperazine compounds and uses thereof” (UNIVERSITY OF OTTAWA, priority 2016, dated 2021)

Experiments:
[1] = tested on: SCC-13 cells; assay: Migration (scratch wound closure) assay, SCC-13 cells; type: cell-based, human; details: for cell migration (scratch wound closure): 0-12 h
Method: (§1) Migration assay. SCC13-Control-shRNA or SCC13-TG2-shRNA2 cells (2×10^6) were plated in 10 cm dishes and grown as monolayer cultures in spheroid medium until confluent. A 10 μl pipette tip was used to prepare areas void of cells and the dishes were washed to remove the dislodged cells. Images were collected, at 0-18 h after the scratch using the 10× objective, and the width of the opening was measured as a function of time as an index of cell migration potential.
as §1, with “Cells (2 million)” for “SCC13-Control-shRNA or SCC13-TG2-shRNA2 cells (2×10^6)”, “The ability of the cells to close the scratch wounds was monitored” for “Images were collected,”, “(Adhikary, G. et al., PLoS One 8:e84324, 2013).” for “potential.”

[2] = target: T1, R580A-TG2 (Homo sapiens, UniProt P21980, R580A); assay: In situ transamidating assay, SH-SY5Y cells stably overexpressing R580A-TG2; type: cell-based; details: 10 μM, 16-20 h, no calcium stimulation
T1 construct: expressed in transfected cells
T1 sequence (P21980 1-687 R580A): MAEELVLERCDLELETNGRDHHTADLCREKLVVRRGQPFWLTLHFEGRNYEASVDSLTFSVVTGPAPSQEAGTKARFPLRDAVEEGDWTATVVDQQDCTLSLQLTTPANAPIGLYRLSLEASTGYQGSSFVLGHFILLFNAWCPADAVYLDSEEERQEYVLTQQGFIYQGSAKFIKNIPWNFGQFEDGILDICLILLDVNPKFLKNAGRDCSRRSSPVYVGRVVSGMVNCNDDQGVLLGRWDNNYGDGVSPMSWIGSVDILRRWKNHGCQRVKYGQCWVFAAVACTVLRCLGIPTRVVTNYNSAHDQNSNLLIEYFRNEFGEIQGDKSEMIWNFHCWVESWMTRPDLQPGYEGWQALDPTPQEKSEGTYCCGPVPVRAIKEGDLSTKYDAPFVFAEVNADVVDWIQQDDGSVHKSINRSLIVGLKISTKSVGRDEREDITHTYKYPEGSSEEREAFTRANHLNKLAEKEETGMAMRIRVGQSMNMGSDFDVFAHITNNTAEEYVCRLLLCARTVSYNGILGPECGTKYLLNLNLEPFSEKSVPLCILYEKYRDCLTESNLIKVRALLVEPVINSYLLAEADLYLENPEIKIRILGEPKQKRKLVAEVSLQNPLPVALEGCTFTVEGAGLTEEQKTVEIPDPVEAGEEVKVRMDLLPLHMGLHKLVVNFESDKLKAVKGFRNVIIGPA
Method: These inhibitors were then tested in cell culture models for their efficiency in inhibiting in situ transamidating activity. […] For these studies we used SH-SY5Y neuroblastoma cells stably overexpressing R580A-TG2.
In situ transglutaminase assay. In situ transamidating activity measurement was conducted as described previously (Gundemir, S. and Johnson, G. V., PLoS ONE 4(7):e6123, 2009) with slight modifications. Briefly, 24 h after transfection of HEK 293A cells, normal growth media was changed to fresh growth media with 5% FBS containing given amount of ionomycin (0-1.5 μM) and 0.1 mM 5-(biotinamido)pentylamine (BAP) (Pierce). 3 h later, cells were collected in media, pelleted, washed once with PBS and resuspended in homogenization buffer (50 mM Tris-Cl, pH: 7.5, 150 mM NaCl, 1 mM EDTA), sonicated on ice. In a high protein binding 96-well plate (Falcon), 10 μg of protein was loaded in a total of 50 μL homogenization buffer and the plate was incubated at 4° C. overnight. The next day, 200 μL of blocking buffer (5% BSA, 0.01% Tween 20 in borate saline [100 mM boric acid, 20 mM Na-borate and 0.76 mM NaCl]) was added to each sample and the plate was incubated at 37° C. for 1 h. Each well was then rinsed 3 times with rinsing buffer (1% BSA, 0.01% Tween 20 in borate saline) and incubated with 1 μg/μL Horseradish peroxidase conjugated neutravidin (Pierce) in a total of 100 μL rinsing buffer at room temperature for 1 h. The samples were washed 4 times with rinsing buffer, and peroxidase reaction was conducted in the dark in 200 μL of OPD buffer (50 mL of 0.1 M Na2HPO4, 50 mM citric acid, 1 tablet o-phenylenediamine (Sigma Aldrich), 0.0006% H2O2). After 20 minutes, the reaction was stopped by addition of 50 μL of 1 M sulfuric acid and read at 493 nm wavelength.

SMILES: C=CC(=O)NCCCC[C@H](NC(=O)OCc1ccccc1)C(=O)NCCOCCOCCNS(=O)(=O)c1cccc2c(N(C)C)cccc12 [NC9]
- cell migration (scratch wound closure) [1]: inhibited cell migration
- cell migration ([1]; 20 μM, 0-18 h): reduced
- resting (basal) transamidating activity of R580A-TG2 [2]: inhibit resting transamidating activity of R580A-TG2

SMILES: C=CC(=O)NCCCC[C@H](NC(=O)OCc1ccccc1)C(=O)N1CCN(S(=O)(=O)c2cccc3c(N(C)C)cccc23)CC1 [VA4, (S)-benzyl(6-acrylamido-1-(4-((5-(dimethylamino)naphthalen-1-yl)sulfonyl)piperazin-1-yl)-1-oxohexan-2-yl)carbamate]
- cell migration (scratch wound closure) [1]: inhibited cell migration
- resting (basal) transamidating activity of R580A-TG2 [2]: inhibit resting transamidating activity of R580A-TG2

SMILES: C=CC(=O)NCCCC[C@H](NC(=O)OCc1ccccc1)C(=O)N1CCN(C(=O)c2cc3ccc(O)cc3oc2=O)CC1 [VA5, (S)-Benzyl(6-acrylamido-1-(4-(7-hydroxy-2-oxo-2H-chromene-3-carbonyl)piperazin-1-yl)-1-oxohexan-2-yl)carbamate]
- cell migration (scratch wound closure) [1]: inhibited cell migration
- resting (basal) transamidating activity of R580A-TG2 [2]: inhibit resting transamidating activity of R580A-TG2
